Source: patent publication US6514964B1, “Fused cycloheptane and fused azacycloheptane compounds and their methods of use” (Amgen Inc., priority 1999, dated 2003)
Where a name gives a salt, the structure may show the parent alone.

test system: human umbilical cord endothelial cells (HUVEC); assay: HUVEC proliferation assay and/or HUVEC adhesion assay; type: cell-based; settings: bound stated for the listed compounds
Method: HUVEC Proliferation Assay
1. Coat 3 NUNC polystyrene 96 well plate (VWR, 62409-120; lids 62409-118) with vitronectin (purified internally), fibronectin (Collaborative Biomed 40008A) or fibrinogen (Calbiochem 341578) 50 ng/well in 50 μl PBS, 1 hr @ RT.
a. rinse with 5 mls PBS (no Ca, Mg)
3. Rinse vitronectin plates 1× in 200 μl PBS −/− and add 3000 cells per well in 100 ul growth medium (EBM2 (Clonetics, CC-3156)+EGM2 bullet kit (CC-4176)).
4. Incubate 24 hours at 37° C. to allow attachment.
5. Remove growth medium and add 100 μl growth medium+drugs (25 μM and down by five fold steps in DMSO-0.25% final DMSO concentration).
6. Incubate for 3 days changing media (+drugs).
7. Remove non-adherent cells on Friday with Raindance 12 well plate washer.
8. Wash twice with 200 μl PBS (+Mg & Ca).
9. Tap out excess liquid.
10. Freeze @ −70° C. for 30 minutes.
11. Thaw plate and add 150 μl CyQuant fluorescent dye (Molecular Probes C-7026).
12. Read after 4 minutes @ 485λ (excitation), 530λ (emission).
1. Coat 2 NUNC polystyrene 96 well plates (VWR, 62409-120; lids 62409-118) with 50 μl vitronectin (purified internally) at 50 ng/well in PBS (−Mg & Ca), for 1 hour @ 37° C.
2. Rinse with PBS & block with 150 μl PBS/1% BSA (Sigma A8918), 1 hour at @ 37° C.
3. Prepare drug dilutions:
a. 400 fold concentrate in 100% DMSO
b. 0.25% DMSO [assay]final
c. 10 mM & down (25 μMfinal & down)
d. dilute 1 μl of 400 fold conc into 200 μl adhesion media
a. rinse with 5 ml PBS (no Ca, Mg)
6. Rinse blocking buffer from assay plate and add 50 μl of drug dilutions.
7. Resuspend cells in adhesion media, count and add 2e4 cells/well in 50 μl (4e5/ml).
8. Incubate 60 minutes @ 37° C.
9. Remove non-adherent cells with Raindance 12 well plate washer.
10. Wash twice with 200 μl PBS (+Mg & Ca)
11. Tap out excess liquid.
12. Freeze @ −70° C. for 30 minutes to overnite.
13. Thaw plate and add 150 μl CyQuant fluorescent dye (Molecular Probes C-7026).
14. Read after 2-5 minutes @ 485λ (excitation), 530λ (emission).
Adhesion medium: Media 199 (which contains […] and 0.8 mM MgSO4), 0.5% BSA, 10 mM HEPES, 1 mM MgCl2, and 1 mM MnCl2

SMILES	IC50
Cc1cc(CCCNC(=O)N2CCC(CC(=O)O)c3ccccc3C2)nc2c1CCCN2 (stereo not drawn) [2-(2-{N-[3-(5-methyl-1,2,3,4-tetrahydropyridino[2,3-b]pyridin-7-yl)propyl]carbamoyl}-1H, 3H, 4H, 5H-benzo[e]azepin-5-yl)acetic acid]	≤ 30 µM
O=C(O)CC1CN(C(=O)NCCc2ccc3c(n2)NCCC3)CCc2ccccc21 (stereo not drawn) [2-(3-(N-(2-(1,2,3,4-tetrahydropyridino[2,3-b]pyridin-7-yl)ethyl)carbamoyl)-1H, 2H, 4H, 5H-benzo[d]azepin-1-yl}acetic acid]	≤ 30 µM
Cc1ccnc(NCCCCNC(=O)N2CCC(CC(=O)O)c3ccccc3C2)c1 (stereo not drawn) [2-[2-(N-{4-[(4-methyl-2-pyridyl)amino]butyl}carbamoyl)-1H, 3H, 4H, 5H-benzo[e]azepin-5-yl]acetic acid]	≤ 30 µM
O=C(O)CC1CCN(C(=O)NCCCCNC(=O)NCc2ccccc2)Cc2ccccc21 (stereo not drawn) [2-{2-[N-(4-{[benzylamino]carbonylamino}butyl)carbamoyl]-1H, 3H, 4H, 5H-benzo[e]azepin-5-yl}acetic acid]	≤ 30 µM
O=C(O)CC1CCN(C(=O)NCCCNc2ccccn2)Cc2ccccc21 (stereo not drawn) [Example 2, 2-(2-(N-(3-(2-pyridylamino)propyl)carbamoyl)-1H,3H,4H,5H-benzo[e]azain-5-yl)acetic acid]	≤ 30 µM
O=C(O)CC1CCN(C(=O)NCCCCNc2ccccn2)Cc2ccccc21 (stereo not drawn) [Example 3, 2-(2-(N-(4-(2-pyridylamino)butyl)carbamoyl)-1H,3H,4H,5H-benzo[e]azapin-5-yl)acetic acid]	≤ 30 µM
O=C(O)CC1CCN(C(=O)NCCCCCNc2ccccn2)Cc2ccccc21 (stereo not drawn) [Example 4, 2-(2-(N-(5-(2-pyridylamino)pent-1-yl)carbamoyl)-1H,3H,4H,5H-benzo[e]azapin-5-yl)acetic acid]	≤ 30 µM
CN(CCCCNc1ccccn1)C(=O)N1CCC(CC(=O)O)c2ccccc2C1 (stereo not drawn) [Example 5, 2-(2-(N-methyl—N-(4-(2-pyridylamino)but-1-yl)carbamoyl)-1H,3H,4H,5H-benzo[e]azapin-5-yl)acetic acid]	≤ 30 µM
O=C(O)CC1CCN(C(=O)NC2CCC(Nc3ccccn3)CC2)Cc2ccccc21 (stereo not drawn) [Example 6, 2-(2-(N-(4-(2-pyridylamino)-trans-cyclohexyl)carbamoyl)-1H,3H,4H,5H-benzo[e]azapin-5-yl)acetic acid]	≤ 30 µM
O=C(O)CC1CCN(C(=O)N2CCC(CNc3ccccn3)CC2)Cc2ccccc21 (stereo not drawn) [Example 7, 2-(2-(((4-(2-pyridylamino)methyl)piperid-1-yl)carbonyl)-1H,3H,4H,5H-benzo[e]azapin-5-yl)acetic acid]	≤ 30 µM
O=C(O)CC1CCN(C(=O)Nc2cccc(CNc3ccccn3)c2)Cc2ccccc21 (stereo not drawn) [Example 8, 2-(2-(N-(3-(2-pyridylamino)methylphenyl)carbamoyl)-1H,3H,4H,5H-benzo[e]azapin-5-yl)acetic acid]	≤ 30 µM
Cc1cccc(NCCCCNC(=O)N2CCC(CC(=O)O)c3ccccc3C2)n1 (stereo not drawn) [Example 9, 2-(2-(N-(4-((6-methyl-2-pyridyl)amino)but-1-yl)carbamoyl)-1H,3H,4H,5H-benzo[e]azapin-5-yl)acetic acid]	≤ 30 µM
O=C(O)CC1CCN(C(=O)NCCCCNc2ncccn2)Cc2ccccc21 (stereo not drawn) [Example 10, 2-(2-(N-(4-(pyrimidin-2-ylamino)but-1-yl)carbamoyl)-1H,3H,4H,5H-benzo[e]azapin-5-yl)acetic acid]	≤ 30 µM
Nc1cccc(CCCNC(=O)N2CCC(CC(=O)O)c3ccccc3C2)n1 (stereo not drawn) [Example 11, 2-(2-(N-(3-(6-amino-2-pyridyl)prop-1-yl)carbamoyl)-1H,3H,4H,5H-benzo[e]azapin-5-yl)acetic acid Hydrochloride]	≤ 30 µM
CC(C)(C)OC(=O)Nc1cccc(CCCNC(=O)N2CCC(CC(=O)O)c3ccccc3C2)n1 (stereo not drawn) [Example 12, 2-(2-(N-(3-(6-(tert-butoxycarbonylamino)-2-pyridyl)proyl)carbamoyl)-1H,3H,4H,5H-benzo[e]azapin-5-yl)acetic acid]	≤ 30 µM
O=C(O)CC1CCN(C(=O)NCCCc2ccc3c(n2)NCCC3)Cc2ccccc21 (stereo not drawn) [Example 13, 2-(2-(N-(3-(1,2,3,4-tetrahydropyridino(2,3-b)pyridin-7-yl)prop-1-yl)carbamoyl)-1H,3H,4H,5H-benzo[e]azapin-5-yl)acetic acid]	≤ 30 µM
O=C(O)CC1CCN(S(=O)(=O)NCCCCNc2ccccn2)Cc2ccccc21 (stereo not drawn) [Example 14, 2-(2-(((4-(2-pyridylamino)but-1-yl)amino)sulfonyl)-1H,3H,4H,5H-benzo[e]azapin-5-yl)acetic acid]	≤ 30 µM

SMILES	IC50
O=C(O)CC1CCN(S(=O)(=O)NCCCNc2ccccn2)Cc2ccccc21 (stereo not drawn) [Example 15, 2-(2-(((3-(2-pyridylamino)prop-1-yl)amino)sulfonyl)-1H,3H,4H,5H-benzo[e]azapin-5-yl)acetic acid]	≤ 30 µM
O=C(O)CC1CCN(C(=O)CNCCNc2ccccn2)Cc2ccccc21 (stereo not drawn) [Example 16, 2-(2-(2-((2-(2-pyridylamino)ethyl)amino)acetyl)-1H,3H,4H,5H-benzo[e]azain-5-yl)acetic acid]	≤ 30 µM
O=C(O)CC1CCN(C(=O)CNCCCNc2ccccn2)Cc2ccccc21 (stereo not drawn) [Example 17]	≤ 30 µM
O=C(O)CC1CCN(C(=O)CNCCCCNc2ccccn2)Cc2ccccc21 (stereo not drawn) [Example 18]	≤ 30 µM
O=C(O)CC1CCN(CC(=O)NCCCNc2ccccn2)Cc2ccccc21 (stereo not drawn) [Example 19, 2-(2-((N-(3-(2-pyridylamino)prop-1-yl)carbamoyl)methyl)-1H,3H,4H,5H-benzo[e]azapin-5-yl)acetic acid]	≤ 30 µM
O=C(O)CC1CCN(C(=O)OCCCCNc2ccccn2)Cc2ccccc21 (stereo not drawn) [Example 20, 2-(2-(4-(2-pyridylamino)but-1-oxycarbonyl)-1H,3H,4H,5H-benzo[e]azapin-5-yl)acetic acid]	≤ 30 µM
COc1ccc2c(c1)CN(C(=O)NCCCCNc1ccccn1)CCC2CC(=O)O (stereo not drawn) [Example 22, 2-(8-methoxy-2-(N-(4-(2-pyridylamino)but-1-yl)carbamoyl)-1H,3H,4H,5H-benzo[e]azaerhydroepin-5-yl)acetic acid]	≤ 30 µM
O=C(O)CC1CCN(C(=O)NCCCc2ccc3c(n2)NCCC3)Cc2cc(F)ccc21 (stereo not drawn) [Example 24, 2-(8-fluoro-2-(N-(3-(1,2,3,4-tetrahydropyridino [2,3,b]pyridin-7-yl)propyl)carbamoyl)-1H,3H,4H,5H-benzo[e]azaperhydroepin-5-yl)acetic acid]	≤ 30 µM
O=C(O)CC1CC(=O)N(CC(=O)NCCCNc2ccccn2)Cc2ccccc21 (stereo not drawn) [Example 25, 2-(2-({N-(4-(2-pyridylamino)prop-1-yl)carbamoyl}methyl)-3-oxo-1H,4H,5H-benzo(e)azepin-5-yl) acetic acid]	≤ 30 µM
O=C(O)CC1CN(CC(=O)NCCCCNc2ccccn2)CCc2ccccc21 (stereo not drawn) [Example 27, 2-(3-({N-(4-(2-pyridylamino)but-1-yl)carbamoyl}methyl)-1H,2H,4H,5H-benzo[d]azepin-1-yl) acetic acid]	≤ 30 µM
O=C(O)CC1CN(CC(=O)NCCCc2ccc3c(n2)NCCC3)CCc2ccccc21 (stereo not drawn) [Example 28, 2-(3-{[N-(3-(1,2,3,4-tetrahydropyridino[2,3-b]pyridin-7-yl)propyl)carbamoyl]methyl}-1H,2H,4H,5H-benzo[d]azepinyl)acetic acid]	≤ 30 µM
O=C(O)CC1CN(C(=O)NCCCCCNc2ccccn2)CCc2ccccc21 (stereo not drawn) [Example 29, 2-(3-{N-(5-(2-pyridylamino)pent-1-yl)carbamoyl}-1H,2H,4H,5H-benzo[d]azepinyl)acetic acid]	≤ 30 µM
O=C(O)CC1CN(C(=O)NCCCc2ccc3c(n2)NCCC3)CCc2ccccc21 (stereo not drawn) [Example 30, 2-{3-(N-(3-(1,2,3,4-tetrahydropyridino[2,3-b]pyridin-7-yl)propyl)carbamoyl)-1H,2H,4H,5H-benzo[d]azepin-1-yl}acetic acid]	≤ 30 µM
O=C(O)CC1CN(C(=O)CCCCCCNc2ccccn2)CCc2ccccc21 (stereo not drawn) [Example 32, 2-{3-(7-(2-pyridylamino)heptanoyl)-1H,2H,4H,5H-benzo[d]azepin-1-yl}acetic acid]	≤ 30 µM
CC(C)N(CCc1ccc2c(n1)NCCC2)C(=O)N1CCC(CC(=O)O)c2ccccc2C1 (stereo not drawn) [Example 41, 2-{2-[N-(methylethyl)-N-(2-(1,2,3,4-tetrahydroyridino[2,3-b]pyridin-7-yl)ethyl)carbamoyl]-1H,3H,4H,5H-benzo[e]azepin-5-yl]acetic acid]	≤ 30 µM
N#C/N=C(\NCCCc1ccc2c(n1)NCCC2)N1CCC(CC(=O)O)c2ccccc2C1 (stereo not drawn) [Example 42]	≤ 30 µM
